Read-outs that look alike come from different tables or passages of the source.
Tests used:
PfCRT^Ecu1110 [1] = target: T1, PfCRT^Ecu1110 (Plasmodium falciparum, UniProt Q9N623, A220S/I356L/K76T/N326D); assay: cell-based; type: cell-based; settings: for Uptake of [3H]CQ (% PfCRTEcu1110 control), trans-stimulation / PfCRT-mediated [3H]CQ transport, trans-stimulation (% PfCRTEcu1110 control): PfCRTEcu1110 oocytes; for Uptake of [3H]CQ (% PfCRTEcu1110 control), trans-stimulation: total [3H]CQ transport, normalised to the oocyte type control; for PfCRT-mediated [3H]CQ transport, trans-stimulation (% PfCRTEcu1110 control): normalised to oocyte type control; for [3H]CQ transport (% PfCRTDd2 control), trans-stimulation, PfCRTEcu1110: PfCRT-mediated component (background subtracted), sheet title says normalised to PfCRTDd2 control, mean ± SEM, SEM
Method in brief: (§1)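 Transport measured in Xenopus oocytes expressing the transporters, 1.5 h at 27.5 °C in ND96 pH 5.5 unless noted. For trans-stimulation, VF-6 injected in 25 nL ND96 at pH 5.0–7.0 or Na^+-free (choline) buffer; intracellular levels based on ~400 nL oocyte volume. Ten oocytes per treatment, ≥4 experiments.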

PfCRT^Dd2 [2] = target: T2, PfCRT^Dd2 (Plasmodium falciparum, UniProt Q9N623, A220S/I356T/K76T/M74I/N326S/N75E/Q271E/R371I); assay: cell-based; type: cell-based; settings: for Uptake of [3H]CQ (% PfCRTDd2 control), trans-stimulation / PfCRT-mediated [3H]CQ transport, trans-stimulation (% PfCRTDd2 control): PfCRTDd2 oocytes; for Uptake of [3H]CQ (% PfCRTDd2 control), trans-stimulation: total [3H]CQ transport, normalised to the oocyte type control; for PfCRT-mediated [3H]CQ transport, trans-stimulation (% PfCRTDd2 control): normalised to oocyte type control; for [3H]CQ transport (% PfCRTDd2 control), trans-stimulation, PfCRTDd2: PfCRT-mediated component (background subtracted), mean ± SEM, SEM
Method in brief: as §1

PfCRT^3D7 [3] = target: T3, PfCRT^3D7 (Plasmodium falciparum, UniProt Q8IBZ9); assay: cell-based; type: cell-based; settings: PfCRT3D7 oocytes; for Uptake of [3H]CQ (% PfCRT3D7 control), trans-stimulation: total [3H]CQ transport, normalised to the oocyte type control; for PfCRT-mediated [3H]CQ transport, trans-stimulation (% PfCRT3D7 control): normalised to oocyte type control
Method in brief: as §1

PfNT1 = target: T4, PfNT1 (Plasmodium falciparum, UniProt Q8IDM6); assay: cell-based; type: cell-based; settings: PfNT1 oocytes, total [3H]CQ transport, normalised to the oocyte type control
T4 construct: expressed in transfected cells; host or cells: Xenopus laevis oocytes (stage V-VI), cRNA-injected
Method in brief: as §1

non-expressing oocytes [4] = assay: cells; type: cell-based, Xenopus laevis; settings: non-expressing oocytes, total [3H]CQ transport, normalised to the oocyte type control
Method in brief: (§2)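 Oocytes expressing PfCRT isoforms, or non-expressing controls, were incubated 1.5 h at 27.5 °C in ND96 buffer pH 5.5 (96 mM NaCl, 2 mM KCl, 1 mM MgCl2, 1.8 mM CaCl2, 10 mM MES, 10 mM Tris-base), measuring uptake from acidic medium into cytosol. Oocytes were washed ice-cold, SDS-lysed and counted by scintillation.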

PfCRT^Ecu1110 [5] = target: T1, PfCRT^Ecu1110; assay: [3H]CQ uptake into Xenopus oocytes, cis-inhibition by unlabelled solute; type: cell-based; settings: for Uptake of [3H]CQ (% PfCRTEcu1110 control), cis-inhibition / PfCRT-mediated [3H]CQ transport, cis-inhibition (% PfCRTEcu1110 control): PfCRTEcu1110 oocytes; for Uptake of [3H]CQ (% PfCRTEcu1110 control), cis-inhibition: total [3H]CQ transport, normalised to the oocyte type control; for PfCRT-mediated [3H]CQ transport, cis-inhibition (% PfCRTEcu1110 control): background [3H]CQ accumulation subtracted, normalised to oocyte type control; for [3H]CQ transport (% PfCRTEcu1110 control), cis-inhibition, PfCRTEcu1110: PfCRT-mediated component (background subtracted), sheet title says normalised to PfCRTDd2 control, mean ± SEM, SEM
Method in brief: as §2

PfCRT^Dd2 [6] = target: T2, PfCRT^Dd2; assay: as above; type: cell-based; settings: PfCRTDd2 oocytes, background [3H]CQ accumulation subtracted, normalised to oocyte type control
Method in brief: as §2

non-expressing oocytes [7] = type: cell-based, Xenopus laevis; settings: non-expressing oocytes, total [3H]CQ transport, normalised to the oocyte type control
Method in brief: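 Oocytes (ten per treatment, ≥4 independent frogs/days) were preloaded by injecting VF-6 in 25 nL ND96 at pH 5.0, 5.5, 6.0 or 7.0, or Na^+-free choline buffer, then uptake run 1.5 h, 27.5 °C, ND96 pH 5.5 by default. Internal concentrations assumed ~400 nL oocyte volume.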

PfCRT^3D7 [8] = target: T3, PfCRT^3D7; assay: cell-based; type: cell-based; settings: PfCRT3D7 oocytes, total [3H]CQ transport, normalised to the oocyte type control
Method in brief: as §2

[9] = [test solute]i = 45 mM (30 mM for some solutes due to solubility)
[10] = [test solute]i = 5 mM (intracellular)
[11] = [test solute]i = 45 mM (intracellular; 30 mM for some solutes due to solubility)
[12] = [test solute]i = 5 mM (injected)

T2 sequence (Q9N623 whole entry A220S/I356T/K76T/M74I/N326S/N75E/Q271E/R371I): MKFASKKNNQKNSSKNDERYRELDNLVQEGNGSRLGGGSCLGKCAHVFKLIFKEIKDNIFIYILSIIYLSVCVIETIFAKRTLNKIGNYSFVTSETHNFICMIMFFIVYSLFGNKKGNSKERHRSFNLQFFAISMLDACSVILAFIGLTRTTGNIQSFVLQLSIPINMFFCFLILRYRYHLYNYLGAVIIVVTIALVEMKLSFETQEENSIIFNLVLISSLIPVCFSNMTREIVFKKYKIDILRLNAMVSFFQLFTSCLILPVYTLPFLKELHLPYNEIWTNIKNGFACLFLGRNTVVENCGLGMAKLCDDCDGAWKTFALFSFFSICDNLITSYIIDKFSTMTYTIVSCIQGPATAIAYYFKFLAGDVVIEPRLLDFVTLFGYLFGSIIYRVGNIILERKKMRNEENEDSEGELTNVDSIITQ
T1 sequence (Q9N623 whole entry A220S/I356L/K76T/N326D): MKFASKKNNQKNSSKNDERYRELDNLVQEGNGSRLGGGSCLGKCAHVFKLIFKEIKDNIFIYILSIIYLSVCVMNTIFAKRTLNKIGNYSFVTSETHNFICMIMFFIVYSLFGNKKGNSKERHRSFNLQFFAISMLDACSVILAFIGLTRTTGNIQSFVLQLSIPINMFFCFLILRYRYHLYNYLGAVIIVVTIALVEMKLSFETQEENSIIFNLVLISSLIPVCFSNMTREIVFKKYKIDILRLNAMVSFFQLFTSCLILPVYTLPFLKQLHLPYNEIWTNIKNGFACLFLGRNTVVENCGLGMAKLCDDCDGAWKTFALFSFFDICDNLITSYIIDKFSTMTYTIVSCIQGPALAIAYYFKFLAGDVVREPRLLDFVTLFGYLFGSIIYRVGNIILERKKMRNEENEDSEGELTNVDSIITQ
T3 sequence (Q8IBZ9 59-398): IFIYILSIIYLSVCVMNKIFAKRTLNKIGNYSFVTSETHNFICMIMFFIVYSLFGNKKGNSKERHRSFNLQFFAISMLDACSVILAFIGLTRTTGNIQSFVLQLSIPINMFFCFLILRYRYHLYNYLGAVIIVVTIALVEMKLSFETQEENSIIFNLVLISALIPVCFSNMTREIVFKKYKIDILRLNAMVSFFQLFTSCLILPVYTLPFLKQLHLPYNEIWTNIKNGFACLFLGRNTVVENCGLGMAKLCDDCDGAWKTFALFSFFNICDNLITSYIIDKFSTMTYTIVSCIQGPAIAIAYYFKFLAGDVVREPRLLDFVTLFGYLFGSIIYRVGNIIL
T4 sequence (Q8IDM6 whole entry): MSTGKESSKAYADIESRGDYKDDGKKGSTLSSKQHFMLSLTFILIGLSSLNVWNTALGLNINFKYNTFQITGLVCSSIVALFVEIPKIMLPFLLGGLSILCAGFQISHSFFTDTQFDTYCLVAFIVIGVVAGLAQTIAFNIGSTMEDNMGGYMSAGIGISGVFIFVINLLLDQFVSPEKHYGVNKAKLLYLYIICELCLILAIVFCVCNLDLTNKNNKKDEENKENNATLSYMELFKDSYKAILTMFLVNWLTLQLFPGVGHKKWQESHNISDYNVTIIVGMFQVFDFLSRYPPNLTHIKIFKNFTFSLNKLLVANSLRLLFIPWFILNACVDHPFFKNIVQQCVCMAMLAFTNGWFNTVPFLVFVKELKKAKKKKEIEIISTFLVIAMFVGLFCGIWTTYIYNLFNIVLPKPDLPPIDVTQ

With PEEK [PK-4] the “Uptake of [3H]CQ (% PfCRTEcu1110 control), trans-stimulation” value (PfCRT^Ecu1110 [1]; [test solute]i = 5 mM) was 99 ± 1.4 % PfCRTEcu1110 control, the “Uptake of [3H]CQ (% PfCRTEcu1110 control), trans-stimulation” value (PfCRT^Ecu1110 [1]; [9]) was 97 ± 2.4 % PfCRTEcu1110 control and the “PfCRT-mediated [3H]CQ transport, trans-stimulation (% PfCRTEcu1110 control)” value (PfCRT^Ecu1110 [1]; [10]) was 97 ± 2.7 % PfCRTEcu1110 control. For the same substance, the “PfCRT-mediated [3H]CQ transport, trans-stimulation (% PfCRTEcu1110 control)” value (PfCRT^Ecu1110 [1]; [11]) was 95 ± 3.5 % PfCRTEcu1110 control, the “[3H]CQ transport (% PfCRTDd2 control), trans-stimulation, PfCRTEcu1110” value (PfCRT^Ecu1110 [1]; [12]) was 29 ± 1.1 % PfCRTEcu1110 control and the “[3H]CQ transport (% PfCRTDd2 control), trans-stimulation, PfCRTEcu1110” value (PfCRT^Ecu1110 [1]; [9]) was 29 ± 1.2 % PfCRTEcu1110 control. The “Uptake of [3H]CQ (% PfCRTDd2 control), trans-stimulation” value (PfCRT^Dd2 [2]; [test solute]i = 5 mM) was 97 ± 2.1 % PfCRTDd2 control, the “Uptake of [3H]CQ (% PfCRTDd2 control), trans-stimulation” value (PfCRT^Dd2 [2]; [9]) was 97 ± 3.2 % PfCRTDd2 control and the “PfCRT-mediated [3H]CQ transport, trans-stimulation (% PfCRTDd2 control)” value (PfCRT^Dd2 [2]; [10]) was 95 ± 4.4 % PfCRTDd2 control. For the same substance, the “PfCRT-mediated [3H]CQ transport, trans-stimulation (% PfCRTDd2 control)” value (PfCRT^Dd2 [2]; [11]) was 100 ± 4.3 % PfCRTDd2 control, the “[3H]CQ transport (% PfCRTDd2 control), trans-stimulation, PfCRTDd2” value (PfCRT^Dd2 [2]; [12]) was 95 ± 4.4 % PfCRTDd2 control and the “[3H]CQ transport (% PfCRTDd2 control), trans-stimulation, PfCRTDd2” value (PfCRT^Dd2 [2]; [9]) was 100 ± 4.3 % PfCRTDd2 control. The “Uptake of [3H]CQ (% PfCRT3D7 control), trans-stimulation” value (PfCRT^3D7 [3]; [test solute]i = 5 mM) was 99 ± 2.1 % PfCRT3D7 control, the “Uptake of [3H]CQ (% PfCRT3D7 control), trans-stimulation” value (PfCRT^3D7 [3]; [9]) was 100 ± 1.7 % PfCRT3D7 control and the “PfCRT-mediated [3H]CQ transport, trans-stimulation (% PfCRT3D7 control)” value (PfCRT^3D7 [3]; [10]) was 97 ± 3.8 % PfCRT3D7 control. For the same substance, the “PfCRT-mediated [3H]CQ transport, trans-stimulation (% PfCRT3D7 control)” value (PfCRT^3D7 [3]; [11]) was 98 ± 3.2 % PfCRT3D7 control, the “Uptake of [3H]CQ (% PfNT1 control), trans-stimulation” value (PfNT1; [test solute]i = 5 mM) was 99 ± 2.1 % PfNT1 control and the “Uptake of [3H]CQ (% PfNT1 control), trans-stimulation” value (PfNT1; [9]) was 100 ± 2.7 % PfNT1 control. The “Uptake of [3H]CQ (% non-expressing oocyte control), cis-inhibition” value (non-expressing oocytes [4]; [test solute] = 0.5 mM) was 100 ± 5.8 % non-expressing oocyte control, the “Uptake of [3H]CQ (% non-expressing oocyte control), cis-inhibition” value (non-expressing oocytes [4]; [test solute] = 1 mM) was 99 ± 5.3 % non-expressing oocyte control and the “Uptake of [3H]CQ (% PfCRTEcu1110 control), cis-inhibition” value (PfCRT^Ecu1110 [5]; [test solute] = 0.5 mM) was 51 ± 3.2 % PfCRTEcu1110 control. For the same substance, the “Uptake of [3H]CQ (% PfCRTEcu1110 control), cis-inhibition” value (PfCRT^Ecu1110 [5]; [test solute] = 1 mM) was 47 ± 3.2 % PfCRTEcu1110 control, the “Uptake of [3H]CQ (% PfCRTEcu1110 control), cis-inhibition” value (PfCRT^Ecu1110 [5]; [test solute] = 2 mM) was 33 ± 2.6 % PfCRTEcu1110 control and the “PfCRT-mediated [3H]CQ transport, cis-inhibition (% PfCRTEcu1110 control)” value (PfCRT^Ecu1110 [5]; [test solute] = 0.5 mM) was 46 ± 1.6 % PfCRTEcu1110 control. For the same substance, the “PfCRT-mediated [3H]CQ transport, cis-inhibition (% PfCRTEcu1110 control)” value (PfCRT^Ecu1110 [5]; [test solute] = 1 mM) was 42 ± 4.2 % PfCRTEcu1110 control, the “PfCRT-mediated [3H]CQ transport, cis-inhibition (% PfCRTEcu1110 control)” value (PfCRT^Ecu1110 [5]; [test solute] = 2 mM) was 27 ± 1.9 % PfCRTEcu1110 control and the “[3H]CQ transport (% PfCRTEcu1110 control), cis-inhibition, PfCRTEcu1110” value (PfCRT^Ecu1110 [5]; [test solute] = 0.5 mM) was 14 ± 0.2 % PfCRTEcu1110 control. For the same substance, the “[3H]CQ transport (% PfCRTEcu1110 control), cis-inhibition, PfCRTEcu1110” value (PfCRT^Ecu1110 [5]; [test solute] = 1 mM) was 13 ± 0.4 % PfCRTEcu1110 control, the “[3H]CQ transport (% PfCRTEcu1110 control), cis-inhibition, PfCRTEcu1110” value (PfCRT^Ecu1110 [5]; [test solute] = 2 mM) was 9.0 ± 0.04 % PfCRTEcu1110 control and the “PfCRT-mediated [3H]CQ transport, cis-inhibition (% PfCRTDd2 control)” value (PfCRT^Dd2 [6]; [test solute] = 0.5 mM) was 57 ± 2.0 % PfCRTDd2 control. The “PfCRT-mediated [3H]CQ transport, cis-inhibition (% PfCRTDd2 control)” value (PfCRT^Dd2 [6]; [test solute] = 1 mM) was 44 ± 2.1 % PfCRTDd2 control, the “PfCRT-mediated [3H]CQ transport, cis-inhibition (% PfCRTDd2 control)” value (PfCRT^Dd2 [6]; [test solute] = 2 mM) was 37 ± 2.2 % PfCRTDd2 control and the “Uptake of [3H]CQ (% non-expressing oocyte control), trans-stimulation” value (non-expressing oocytes [7]; [test solute]i = 5 mM) was 100 ± 1.8 % non-expressing oocyte control. For the same substance, the “Uptake of [3H]CQ (% non-expressing oocyte control), trans-stimulation” value (non-expressing oocytes [7]; [9]) was 99 ± 1.5 % non-expressing oocyte control, the “Uptake of [3H]CQ (% PfCRT3D7 control), cis-inhibition” value (PfCRT^3D7 [8]; [test solute] = 0.5 mM) was 102 ± 4.4 % PfCRT3D7 control and the “Uptake of [3H]CQ (% PfCRT3D7 control), cis-inhibition” value (PfCRT^3D7 [8]; [test solute] = 1 mM) was 99 ± 4.7 % PfCRT3D7 control. For the same substance, the “Uptake of [3H]CQ (% PfCRT3D7 control), cis-inhibition” value (PfCRT^3D7 [8]; [test solute] = 2 mM) was 98 ± 3.7 % PfCRT3D7 control.

From publication PMC7413254 (Nature Communications, 2020)
